From PMC5371667, “Targeting Bile Acid Receptors: Discovery of a Potent and Selective Farnesoid X Receptor Agonist as a New Lead in the Pharmacological Approach to Liver Diseases” (Frontiers in Pharmacology, 2017) come the findings set out here.

Each structure is given as a SMILES string.

One experiment has as its target T1, GST-fusion FXR-LBD (Homo sapiens, UniProt Q96RI1).
T1 construct: 10 nM of purified GST-tagged FXR-LBD protein
T1 sequence (Q96RI1 262-486 limits assumed): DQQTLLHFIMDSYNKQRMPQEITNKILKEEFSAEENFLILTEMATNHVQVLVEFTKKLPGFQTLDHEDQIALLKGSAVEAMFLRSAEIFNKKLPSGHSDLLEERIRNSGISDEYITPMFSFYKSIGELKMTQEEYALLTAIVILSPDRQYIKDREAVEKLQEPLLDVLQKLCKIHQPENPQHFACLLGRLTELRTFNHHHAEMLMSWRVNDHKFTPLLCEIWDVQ
Description: Alpha Screen coactivator (SRC-1 peptide) recruitment assay. It is filed as biochemical. As to the method:
Activation of FXR was determined by Alpha Screen Technology in a Coactivator Recruitment Assay. Anti-GST-coated acceptor beads were used to capture the GST-fusion FXR-LBD, whereas the biotinylated-SRC-1 peptide was captured by the streptavidin donor beads. Upon illumination at 680 nm, chemical energy is transferred from donor to acceptor beads across the complex streptavidin-donor/[…]-LBD/anti-GST-acceptor and a signal is produced. The assay was performed in white, low-volume, 384-well Optiplates (PerkinElmer) using a final volume of 25 μL containing final concentrations of 10 nM of purified GST-tagged FXR-LBD protein, 30 nM biotinylated SRC-1 peptide, 20 μg/mL anti-GST acceptor beads, and 10 μg/mL of streptavidin donor bead (PerkinElmer). The assay buffer contained 50 mM Tris (pH 7.4), 50 mM KCl and 1 mM DTT. The stimulation times with 1 μL of tested compound (dissolved in 50% DMSO/H2O) were fixed to 30 min at room temperature. The concentration of DMSO in each well was maintained at a final concentration of 2%. After the addition of the detection mix (acceptor and donor beads), the plates were incubated in the dark for 3 h at room temperature and then were read in an Envision microplate analyzer (PerkinElmer).

The target of a further experiment is T2, human GPBAR1 (Homo sapiens, UniProt Q8TDU6).
T2 construct: expressed in transfected cells; host or cells: HepG2
T2 sequence (Q8TDU6 1-330): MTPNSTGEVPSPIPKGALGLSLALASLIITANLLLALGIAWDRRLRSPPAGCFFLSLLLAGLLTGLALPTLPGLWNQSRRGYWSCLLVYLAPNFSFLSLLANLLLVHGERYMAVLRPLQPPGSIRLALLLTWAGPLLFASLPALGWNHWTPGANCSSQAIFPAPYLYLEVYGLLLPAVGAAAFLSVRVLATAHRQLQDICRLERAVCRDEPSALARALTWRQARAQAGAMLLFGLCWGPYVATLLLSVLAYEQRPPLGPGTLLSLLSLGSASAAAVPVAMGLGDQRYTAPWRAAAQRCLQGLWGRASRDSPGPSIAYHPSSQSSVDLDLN
Description: GPBAR1 transactivation on HepG2 cells (CRE luciferase reporter). It is filed as cell-based. Particulars: 50 and 100 μM. As to the method:
For FXR mediated transactivation, HepG2 cells were plated at 5 × 10^4 cells/well in a 24 well plate. Cells were transfected with 200 ng of the reporter vector p(hsp27)-TK-LUC containing a FXR response element (IR1) cloned from the promoter of heat shock protein 27 (hsp27), 100 ng of pSG5-FXR, 100 ng of pSG5-RXR, and 100 ng of pGL4.70 (Promega), a vector encoding the human Renilla gene. For GPBAR1 mediated transactivation, HepG2 cells were plated at 5 × 10^4 cells/well in a 24 well-plate and transfected with 200 ng of pGL4.29 (Promega), a reporter vector containing a cAMP response element (CRE) that drives the transcription of the luciferase reporter gene luc2P, with 100 ng of pCMVSPORT6-human GPBAR1, and with 100 ng of pGL4.70 Renilla. […] TLCA (10 μM) was used as a positive control for GPBAR1 activity.
A general note: Reporter assays use an easily measured gene product as a stand-in for the process of interest.

For a further experiment, the target named is T3, PPARα (Homo sapiens, UniProt Q07869).
T3 construct: expressed in transfected cells; host or cells: HepG2
T3 sequence (Q07869 239-466 limits assumed): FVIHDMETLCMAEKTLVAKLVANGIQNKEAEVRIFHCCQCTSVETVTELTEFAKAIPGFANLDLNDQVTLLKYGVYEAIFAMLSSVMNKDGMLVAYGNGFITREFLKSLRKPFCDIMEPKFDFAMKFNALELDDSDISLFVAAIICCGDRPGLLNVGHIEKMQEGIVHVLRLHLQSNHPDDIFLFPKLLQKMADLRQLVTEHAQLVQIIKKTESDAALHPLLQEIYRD
Description: PPARα transactivation on HepG2 cells (GAL4 LBD reporter). Particulars: 10 μM. The class given is cell-based. As to the method: (§1) To evaluate LXRα and LXRβ mediated transactivation, HepG2 cells were transfected with 200 ng of the reporter vector p(UAS)5XTKLuc, 100 ng of a vector containing the ligand binding domain of LXRα or LXRβ cloned upstream of the GAL4-DNA binding domain (i.e., pSG5-LXRαLBD-GAL4DBD or pSG5-LXRβLBD-GAL4DBD) and 100 of pGL4.70 Renilla. At 24 h post-transfection, cells were stimulated 18 h with 10 μM compound 2 and GW3965 (GW, 10 μM) was used as positive control. To investigate the PPARα and PPARγ mediated transactivation, HepG2 cells were transiently transfected with 200 ng reporter vector p(UAS)9XTKLuc, 100 ng of a vector containing the ligand binding domain of PPARα or PPARγ cloned upstream of the GAL4-DNA binding domain (i.e., pSG5- PPARαLBD-GAL4DBD or pSG5- PPARγLBD-GAL4DBD) and 100 of pGL4.70 Renilla. For PPARα transactivation, cells were stimulated with 10 μM compound 2 and gemfibrozil (GEM, 10 μM) was used as positive control. For PPARγ transactivation, cells were stimulated with 10 μM compound 2 and rosiglitazone (ROSI, 100 nM) was used as a positive control. Luciferase activities were assayed and normalized with Renilla activities.

Another experiment deals with T4, PPARγ (Homo sapiens, UniProt P37231).
T4 construct: expressed in transfected cells; host or cells: HepG2
T4 sequence (P37231 238-503 limits assumed): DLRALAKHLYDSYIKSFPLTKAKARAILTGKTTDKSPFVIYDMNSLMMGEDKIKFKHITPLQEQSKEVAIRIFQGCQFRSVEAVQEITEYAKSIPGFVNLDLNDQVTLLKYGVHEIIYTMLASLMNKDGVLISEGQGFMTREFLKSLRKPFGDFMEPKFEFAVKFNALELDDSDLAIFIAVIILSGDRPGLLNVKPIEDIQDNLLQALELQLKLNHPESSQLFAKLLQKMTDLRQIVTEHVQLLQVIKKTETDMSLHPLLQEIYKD
Description: PPARγ transactivation on HepG2 cells (GAL4 LBD reporter). It is filed as cell-based. The following applies: 10 μM. On the procedure: as §1

A word on the EC50: it is the concentration giving half of the maximal effect.

On GST-fusion FXR-LBD (recruitment of SRC-1 co-activator peptide, Alfa Screen, Table 1), `CC[C@H]1[C@@H](O)[C@@H]2[C@H](CC[C@]3(C)[C@@H]([C@H](C)CCC(=O)O)CC[C@@H]23)[C@@]2(C)CC[C@H](N=[N+]=[N-])C[C@@H]12` [compound 2, 3β-azido-6α-ethyl-7α-hydroxy-5β-cholan-24-oic acid] displayed a concentration for a half-maximal effect (EC50) of 610 ± 90 nM. Further, at GST-fusion FXR-LBD (recruitment of SRC-1 co-activator peptide, Alfa Screen, Table 1, 6-ECDCA = 100), the Efficacy is 90. The “efficacy respect to 6-ECDCA” value on GST-fusion FXR-LBD (recruitment of SRC-1 peptide) amounted to 90%. At human GPBAR1, the GPBAR1 transactivation result is listed as “inactivity”. On PPARα, the PPARα transactivation entry is reported as “unable in inducing”. Moreover, at PPARγ, the PPARγ transactivation result is recorded as “unable in inducing”.
